From patent US20220267479A1, “POLYIODIDE BINDING COMPOUNDS AND METHODS OF USE THEREOF” (North Carolina State University, priority 2019, published 2022)
“And” between values parts separate entries of the source, which are not always exact repeats. Identical values can stand only once.

Assays:
[1] = biological target: T1, β-glucosidase from Agrobacterium (Agrobacterium sp., UniProt P12614); assay: Indigogenic reaction with β-glucosidase from Agrobacterium; assay type: biochemical
T1 construct: purchased Megazyme; host or cells: recombinant
T1 sequence (P12614 1-459): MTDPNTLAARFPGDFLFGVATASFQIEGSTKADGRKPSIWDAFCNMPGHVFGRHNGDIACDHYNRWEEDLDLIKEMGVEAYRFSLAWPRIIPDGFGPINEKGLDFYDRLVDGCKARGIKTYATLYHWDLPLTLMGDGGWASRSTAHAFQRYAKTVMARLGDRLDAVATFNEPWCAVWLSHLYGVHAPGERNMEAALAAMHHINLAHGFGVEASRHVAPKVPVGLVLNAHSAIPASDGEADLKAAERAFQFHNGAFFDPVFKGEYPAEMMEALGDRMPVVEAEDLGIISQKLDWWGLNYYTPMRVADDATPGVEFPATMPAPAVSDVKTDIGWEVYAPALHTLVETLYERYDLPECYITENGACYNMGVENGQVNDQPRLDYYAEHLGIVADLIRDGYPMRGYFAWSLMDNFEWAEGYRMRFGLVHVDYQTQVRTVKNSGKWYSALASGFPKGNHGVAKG
Procedure: Next, the β-glucosidase from Agrobacterium sp. was investigated as the trigger enzyme for indigoid dye formation. […]
Reactions with β-glucosidase from Agrobacterium. An indoxyl compound in DMF (2 μL, 5 mM) and β-glucosidase from Agrobacterium in 10 mM phosphate buffer [2 μL, 10 μM, pH 7.0, containing 50 mM NaCl and 0.6 M (NH4)2SO4] were mixed with 50 mM phosphate buffer (96 μL, pH 7.0). The reaction mixture was incubated at 37° C. for 2 h and then centrifuged for 3 min. Any precipitate was separated from the supernatant and dissolved in DMF (200 μL). The resulting solution was analyzed by absorption spectroscopy. The experiment was repeated three times.

[2] = assay type: physicochemical; details: pH 7.4
Description: Water solubility of the indoxyl glucoside is important for biological applications. […] Therefore, this compound is not suitable for bioconjugation. The synthesis of 34 relies on successive substitution of the dichloroanilinotriazine unit (derived from N,N-bis(2-methoxyethyl)aniline^31 and cyanuric chloride) with indoxyl-glucoside-PEG-OH and BCN-PEG-NH2 building blocks.
To improve the water solubility of the indoxyl species, a sulfobetaine unit^32,33 was incorporated as a water-solubilizing group. Sulfobetaines are stable zwitterions over a wide range of pH. Synthesis of an indoxyl bearing a sulfobetaine unit is illustrated in Scheme 6. Boc-piperazine (35) was treated with 1,3-propane sultone to afford 36 in 63% yield. Quaternization of the tertiary nitrogen atom in 36 with 3-bromopropanol gave Boc-protected sulfobetaine 37 in 69% yield. The Boc group was cleaved with trifluoroacetic acid (TFA) to afford piperazine-TFA salt 38 in 97% yield. The N-acetyl group of 32 was selectively deprotected with NaHCO3/MeOH in 84% yield. The product 39, piperazine-TFA salt 38, and BCN-amine 14 were assembled at a triazine ring via one-flask, successive substitution of cyanuric chloride to afford 40 in 51% yield. Cleavage of the acetyl groups of sulfobetaine 40 provided 41 in 98% yield.

rat liver homogenate = assay: Indigoid-dye formation in rat liver homogenate; assay type: biochemical; details: indoxyl 1 mM, 5% DMF, 37° C., 24 h
Procedure: Finally, indigoid-dye formation was carried out in rat liver homogenate (Table 1, rightmost column).
Reactions in rat liver homogenate. An indoxyl compound in DMF (5 μL, 20 mM) was mixed with rat liver homogenate (95 μL). The reaction mixture was incubated at 37° C. for 24 h. After allowing to cool to room temperature, the reaction mixture was diluted with DMF (900 μL). The mixture was heated at 70° C. for 2 min and then centrifuged for 2 min. The supernatant was separated from any precipitate. This extraction procedure was repeated two or three times with DMF (100-500 μL). The combined supernatant (1500-1800 μL) was analyzed by absorption spectroscopy.

tritosomes = assay: Indigoid dye formation with tritosomes; assay type: biochemical
Procedure: The results from the glucosidase survey prompted several further experiments. First, a parallel set of studies was carried out with inclusion of several oxidants commonly employed in histochemical studies, given that the indigoid dye forming process requires the presence of an oxidant. […] The activity of the β-glucosidase was affected only slightly in the presence of a non-ionic detergent. To verify that the results observed in Table 1 were reliable, a 5-mg scale reaction of 33 was carried out to isolate indigo 43, which was obtained in 66% yield (Scheme 7). The 66% isolated yield corresponded well with the enzymatic yield of […] (Table 1, entry 15).
General methods. β-Glucosidase from almonds (lyophilized powder, >2 units/mg solid) and peroxidase from horseradish were purchased from Sigma-Aldrich. O-Glucosidase from Agrobacterium sp. (recombinant, suspension in 3.2 M (NH4)2SO4) was purchased from Megazyme; the concentration in solution was determined by absorption spectroscopy with E^0.1%32 2.20 cm^−1 at 280 nm.^37 Tritosomes were purchased from XenoTech. Rat liver homogenate was purchased from MP Biomedicals.

[3] = tested on: β-glucosidase from almonds; assay: Indigogenic reaction with β-glucosidase from almonds; assay type: biochemical
Description: With diverse glucosyl-indoxyl compounds in hand, we carried out a set of studies to examine indigoid-dye formation upon enzymatic cleavage of the glucosyl unit under physiological conditions. Altogether, 14 new (15, 16, 19-27, 30, 33, 41) and 2 known (1, 42) synthetic indoxyl-glucosides (lacking acetyl protecting groups) were examined in an effort to identify suitable combinations of substituents to support both bioconjugation and indigoid dye formation. In initial studies, β-glucosidase from almonds was employed to trigger indigoid dye formation (Table 1). Thus, a mixture of this enzyme (1 unit/mL) and an indoxyl β-glucoside (0.1 μmol, 1 mM) in acetate buffer (pH 5, containing 5% DMF) was incubated at 37° C. for 16-19 h. All indigoid dye was dissolved in each case for quantitative evaluation.
Reactions with β-glucosidase from almonds. An indoxyl compound in DMF (5 μL, 20 mM) and β-glucosidase from almonds in H2O (10 μL, 10 units/mL) were mixed with acetate buffer (85 μL, 50 mM, pH 5.0). The reaction mixture was incubated at 37° C. for 16-19 h and then allowed to cool to room temperature. DMF (300 μL for the reactions of 15, 16, 1, 19, 22, and 25; or 900 μL for the reactions of 42, 20, 21, 23, 24, 26, 27, 30, and 31, respectively) was added to dissolve any indigoid precipitate. The resulting solution was analyzed by absorption spectroscopy.

[4] = biological target: T2, β-glucosidase from Agrobacterium plus rat liver homogenate (Agrobacterium sp., UniProt P12614); assay: Reaction of 33 with β-glucosidase from Agrobacterium in rat liver homogenate; assay type: biochemical; details: 33 100 μM, enzyme 200 nM, 2% DMF, 37° C., 4 h; ε = 2.6 × 10^4 M^-1 cm^-1
T2 construct: purchased Megazyme; host or cells: recombinant
T2 sequence (P12614 1-459): T1 sequence (P12614 1-459)
Procedure: Finally, indigoid-dye formation was carried out in rat liver homogenate (Table 1, rightmost column). Good yields were obtained in the case of 42 (65%, entry 4) and 27 (50%, entry 13). […] However, when β-glucosidase from Agrobacterium (200 nM) was present in rat liver homogenate, the indigoid dye was obtained in 81% yield (entry 15).
Reaction of 33 with β-glucosidase from Agrobacterium in rat liver homogenate. A DMF solution of 33 (2 μL, 5 mM) and β-glucosidase from Agrobacterium in 10 mM phosphate buffer [2 μL, 10 μM, pH 7.0, containing 50 mM NaCl and 0.6 M (NH4)2SO4] were mixed with rat liver homogenate (96 μL). The reaction mixture was incubated at 37° C. for 4 h and then centrifuged for 3 min. Any precipitate was separated from the supernatant and then suspended in DMF (200 μL). The suspension was centrifuged for 3 min. The supernatant was analyzed by absorption spectroscopy.

[5] = as E4 but ε = 2.6 × 10^4 M^-1 cm^-1 measured for 43

SMILES: O=C(NCCOCCOCCNc1nc(OCCOCCOCCOc2c(Br)cc3[nH]cc(OC4O[C@H](CO)[C@@H](O)[C@H](O)[C@H]4O)c3c2Br)nc(N2CC[N+](CCCO)(CCCS(=O)(=O)[O-])CC2)n1)OC[C@@H]1[C@@H]2CCC#CCC[C@@H]21 (stereo partly shown) [Indoxyl 41]
- Yield (%) β-glucosidase from Agrobacterium [1, 5]: 106% and 106 ± 4^g %
- Solubility [2]: > 400 µM

SMILES: COc1nc(Oc2ccc3[nH]cc(O[C@@H]4O[C@H](CO)[C@@H](O)[C@H](O)[C@H]4O)c3c2)nc(N2CCOCC2)n1 [Indoxyl 19, 5-[(4-Methoxy-6-morpholino-1,3,5-triazin-2-yl)oxy]-1H-indole-3-yl β-D-glucopyranoside]
- Yield (%) rat liver homogenate (rat liver homogenate; ε = 1.27 × 10^4 M^-1 cm^-1): <5%
- Yield (%) β-glucosidase from Agrobacterium ([1]; indoxyl 100 μM, enzyme 200 nM, 0.05 M phosphate buffer pH 7.0, 2% DMF, 37° C., 2 h, n=3, ε = 1.27 × 10^4 M^-1 cm^-1): 46 ± 5%
- Indigoid dye formation with tritosomes (tritosomes): low yield of indigoid dye
- Yield (%) β-glucosidase from almonds ([3]; indoxyl 1 mM, enzyme 1 unit/mL, acetate buffer pH 5, 5% DMF, 37° C., 16-19 h, ε = 1.27 × 10^4 M^-1 cm^-1 (measured for 4)): <1%

SMILES: OCCOCCOCCOc1c(Br)cc2[nH]cc(O[C@@H]3O[C@H](CO)[C@@H](O)[C@H](O)[C@H]3O)c2c1Br [Indoxyl 33, 4,6-Dibromo-5-[1-hydroxy-3,6,9-trioxanon-9-yl]-1H-indol-3-yl β-D-glucopyranoside]
- Yield (%) rat liver homogenate (rat liver homogenate; ε = 2.6 × 10^4 M^-1 cm^-1 measured for 43): < 5%
- Yield of indigoid dye ([1]; 33 at 1.0 μM, enzyme 200 nM, pH 7.0, 2 h): 41%
- Yield of indigoid dye ([1]; 33 at 1.0 μM, enzyme 200 nM, pH 7.0, 14 h): 57%
- Yield of indigoid dye ([1]; 33 at 1.8 μM, enzyme 200 nM, pH 7.0, 2 h): 42%
- Yield of indigoid dye ([1]; 33 at 1.8 μM, enzyme 200 nM, pH 7.0, 14 h): 79%
- Yield of indigoid dye ([1]; 33 at 3.2 μM, enzyme 200 nM, pH 7.0, 2 h): 51%
- Yield of indigoid dye ([1]; 33 at 3.2 μM, enzyme 200 nM, pH 7.0, 14 h): 88%
- Yield of indigoid dye ([1]; 33 at 5.6 μM, enzyme 200 nM, pH 7.0, 2 h): 62%
- Yield of indigoid dye ([1]; 33 at 10 μM, enzyme 200 nM, pH 7.0, 2 h): 90%
- Yield of indigoid dye ([1]; 33 at 18 μM, enzyme 200 nM, pH 7.0, 2 h): 85%
- Yield of indigoid dye ([1]; 33 at 32 μM, enzyme 200 nM, pH 7.0, 2 h): 86%
- Yield of indigoid dye ([1]; 33 at 56 μM, enzyme 200 nM, pH 7.0, 2 h): 89%
- Yield (%) β-glucosidase from Agrobacterium [1, 5]: 99% and 99 ± 5^g %
- Yield of indigoid dye ([1]; pH 4, 33 100 μM, enzyme 200 nM, phosphate buffer, 37° C., 3 h): 6%
- Yield of indigoid dye ([1]; pH 5, 33 100 μM, enzyme 200 nM, phosphate buffer, 37° C., 3 h): 38%
- Yield of indigoid dye ([1]; pH 6-8, 10 nM enzyme, 33 100 μM, 2 h): 50-71%
- Yield of indigoid dye ([1]; pH 6-9, 33 100 μM, enzyme 200 nM, 3 h): High to quantitative yields
- Yield (%) β-glucosidase from Agrobacterium plus rat liver homogenate [4]: 81% and 81 ± 5%
- Yield (%) β-glucosidase from almonds ([3]; as E1 but ε = 2.6 × 10^4 M^-1 cm^-1 measured for 43): 52% and 52^g %
